Experimental data taken from publication PMC11506774 (Biomolecules, 2024).
Converted amounts (≈) assume the structure as drawn. Ends that are not written are not given here.

How the values were obtained:
HCV = conditions: cited from earlier work
EV-A71/FY0805 [1] = conditions: for IC50 (µg/mL) EV-A71 /FY0805: 24 h
EV-A71/FY0805 [2] = assay: Receptor competition inhibition assay with cell-free heparan sulfate (HS); type: cell-based; conditions: peptide 62.5 µg/mL pre-incubated with HS (0–0.5 mg/mL) for 1 h, then mixed with 100 TCID50/50 µL EV-A71/FY0805, RD cells 24 h, crystal violet
Protocol: To confirm the interaction of P25 with receptor heparan sulfate (HS) on the cell surface, 50 µL P25 or its derivatives at a concentration of 62.5 µg/mL were pre-incubated with 50 µL cell-free HS (MCE, HY-101916, Princeton, NJ, USA) at different concentrations of 0–0.5 mg/mL at 37 °C for 1 h, mixed with 100 TCID50/50 µL of EV-A71/FY0805, and infected the pre-seeding RD monolayer cells on 96-well plates for 24 h. The CPE was detected and stained using crystal violet. The optical density (OD) at 550 nm was read using the TECAN Infinite 200 PRO instrument.

EV-D68 = assay: Immunostaining of viral VP1 after post-infection peptide treatment; type: cell-based; conditions: RD cells infected with 10 TCID50/50 µL EV-D68 for 1 h, washed, peptide at 125 µg/mL for 24 h, VP1 immune-stained area (ImageJ)
Protocol: RD cells at a density of 4 × 10^4/100 µL/well were seeded in 96-well plates 24 h prior to infection. Fifty microliters of the diluted peptide P25 were added under the following conditions: (1) pre-treatment: cells were pretreated with the peptides for 6 h, 4 h, and 2 h at 35 °C, followed by washing twice with DMEM before virus infection; (2) co-treatment: the peptide was added to the cells together with virus without washing; (3) post-treatment: […] to the medium. Co-treatment with a homemade neutralizing antibody of EV-D68 was employed as the reference control. An amount of 100 TCID50/50 µL was used for the CPE reading, while 10 TCID50/50 µL was used for immunostaining. After 22–24 h of incubation the cells were fixed using 4% formaldehyde and stained with crystal violet or an antibody. The staining of crystal violet was measured at 550 nm using a TECAN Infinite 200 PRO instrument. To detect EV-D68, the polyclonal anti-VP1 (Genetek, GTX132313, South San Francisco, CA, USA) was employed for immunostaining, while the rabbit polyclonal anti-VP1 for the staining of Echo11 was prepared in our laboratory. […] The number of plaques was counted using the CTL ELISPOT reader. […]

Poliovirus 3/nOPV3 = conditions: 24 h
RD cells = assay: Cytotoxicity assay (CCK-8); type: cell-based; conditions: 24 h, 2-fold dilutions from 1 mg/mL, CCK-8, absorbance 450 nm, mean ± SD, at least two independent experiments
Protocol: RD cells at a density of 4 × 10^4/100 µL/well were seeded in 96-well plates 24 h prior to the cytotoxicity assay. The peptide P25 and its derivatives were reconstituted in DMSO to a concentration of 25 mg/mL and then diluted to 1 mg/mL in DMEM with 100 mM HEPES, from which 2-fold serial dilutions of the peptides were produced, starting with the same medium. DMSO diluted in the same medium served as the control. Fifty microliters of diluted peptides and the control medium were added to the cells and cultured for 24 h. After cultivation, 5 µL of the enhanced CCK-8 reagent (Beyotime, C0043, Shanghai, China) were added directly to each well of the cell culture and cultured for an additional hour. Absorbance at 450 nm was detected using a TECAN Infinite 200 PRO instrument. The cell viability was normalized to the control, and the concentration at which a peptide inhibited 50% of the cell viability (CC50) was calculated using GraphPad Prism 9.5.1 (GraphPad software, San Diego, CA, USA).

EV-A71 = conditions: Table S2, anti-viral target EV-A71; ref [21]; cited from earlier work
Excerpt: page 2: Biomolecules 2024, 14, 1331. https://doi.org/10.3390/biom14101331 2 of 10 Table S2. Self-derived antiviral peptides. Source Virus Protein Peptide Sequence Mechanism Anti-viral EC50 Reference target […] Interfering PA- Influenza A PB1 PB11-25 TTFPYT binding domain of Influenza A / [48] PB1 PB1731– […] Interfering PB1- Influenza A PB1 757 ELGRQK binding domain of Influenza A / [22] PB2 EV-A71 VP1 SP40 […] Prevented EV-A71 EV-A71 6-9.3 [21] attachment μM […] Inhibiting S 0.32- HCoV-19 S P3 […] mediated cell–cell HC ...

Echo 30/WZ16 = conditions: RD cells, 24 h, crystal violet
EV-D68/BCH895A = conditions: RD cells, 24 h, crystal violet
[3] = peptide at 125 µg/mL (about 56 µM) co-incubated with 100 TCID50/50 µL virus
[4] = co-treatment, 100 TCID50/50 µL, mean ± SD, at least two independent experiments, >125 = protection less than 50% at 125 µg/mL, NO = no inhibition observed

## HGLLYFAIFFVAAWHIRGR [Peptide H2-3]
HCV
  EC50: 540 nM

## CC[C@H](C)[C@H](NC(=O)[C@H](Cc1c[nH]cn1)NC(=O)[C@H](CCCCN)NC(=O)[C@@H]1CCCN1C(=O)[C@H](CCCCN)NC(=O)[C@H](CCSC)NC(=O)[C@H](Cc1ccc(O)cc1)NC(=O)[C@@H](NC(=O)[C@H](CCCNC(=N)N)NC(=O)[C@@H](NC(=O)[C@@H](NC(=O)[C@@H](NC(=O)[C@@H](N)[C@@H](C)O)C(C)C)[C@@H](C)O)C(C)C)C(C)C)C(=O)N[C@@H](CCCCN)C(=O)O [Peptide P25.2]
EV-A71/FY0805 [1]
  IC50 (µg/mL) EV-A71 /FY0805: >125 µg/mL

## TVTVRVYHK [Peptide P25.4]
EV-A71/FY0805 [1]
  IC50 (µg/mL) EV-A71 /FY0805: >125 µg/mL

## CC[C@H](C)[C@H](NC(=O)[C@H](Cc1c[nH]cn1)NC(=O)[C@H](CCCCN)NC(=O)[C@@H]1CCCN1C(=O)[C@H](CCCCN)NC(=O)[C@H](CCSC)NC(=O)[C@H](Cc1ccc(O)cc1)NC(=O)[C@@H](NC(=O)[C@H](CCCNC(=N)N)NC(=O)[C@@H](NC(=O)[C@@H](NC(=O)[C@@H](NC(=O)[C@@H](NC(=O)[C@H](Cc1ccccc1)NC(=O)CNC(=O)[C@@H](NC(=O)[C@@H]1CCCN1C(=O)[C@H](CCC(N)=O)NC(=O)[C@@H](N)Cc1c[nH]cn1)C(C)C)[C@@H](C)O)C(C)C)[C@@H](C)O)C(C)C)C(C)C)C(=O)N[C@@H](CCCCN)C(=O)O [Peptide P25.9]
EV-A71/FY0805 [2]
  Interference of HS with the antiviral activity of the peptide: interfered with by HS
EV-A71/FY0805 [1]
  IC50 (µg/mL) EV-A71 /FY0805: 13.02 ± 0.81 µg/mL (≈ 5.5 µM)
EV-D68
  Inhibition of the synthesis of the viral protein: significantly inhibited the synthesis of the viral protein
Poliovirus 3/nOPV3
  IC50 (µg/mL) Poliovirus 3 /nOPV3: 108.10 ± 39.15 µg/mL (≈ 45.7 µM)

## CC[C@H](C)[C@H](NC(=O)[C@H](Cc1c[nH]cn1)NC(=O)[C@H](CCCCN)NC(=O)[C@@H]1CCCN1C(=O)[C@H](CCCCN)NC(=O)[C@H](CCSC)NC(=O)[C@H](Cc1ccc(O)cc1)NC(=O)[C@@H](NC(=O)[C@H](CCCNC(=N)N)NC(=O)[C@@H](NC(=O)[C@@H](NC(=O)[C@@H](NC(=O)[C@@H](NC(=O)[C@@H](N)Cc1ccccc1)[C@@H](C)O)C(C)C)[C@@H](C)O)C(C)C)C(C)C)C(=O)N[C@@H](CCCCN)C(=O)N[C@@H](C)C(=O)N[C@@H](Cc1c[nH]c2ccccc12)C(=O)N[C@@H](C)C(=O)O [Peptide P25.8]
EV-A71/FY0805 [2]
  Interference of HS with the antiviral activity of the peptide: interfered with by HS
EV-A71/FY0805 [1]
  IC50 (µg/mL) EV-A71 /FY0805: 24.49 ± 2.96 µg/mL (≈ 11.3 µM)
RD cells
  CC50: 213.07 ± 29.72 µg/mL (≈ 97.9 µM)
Poliovirus 3/nOPV3
  IC50 (µg/mL) Poliovirus 3 /nOPV3: 61.65 ± 4.59 µg/mL (≈ 28.3 µM)

## TVTVRVYMK [Peptide P25.3]
EV-A71/FY0805 [1]
  IC50 (µg/mL) EV-A71 /FY0805: >125 µg/mL

## SWLRDIWDWICEVLSDFK [Peptide C5A, peptide from NS5A of HCV, destabilizing viral membranes]
HCV
  EC50: 340 nM

## AWAKIHKPKMYVRVTVTFG [Peptide P25.R]
RD cells
  CC50: 98.27 ± 7.13 µg/mL

## CC[C@H](C)[C@H](NC(=O)[C@H](Cc1c[nH]cn1)NC(=O)[C@H](C)NC(=O)[C@@H]1CCCN1C(=O)[C@H](CCCCN)NC(=O)[C@H](CCSC)NC(=O)[C@H](Cc1ccc(O)cc1)NC(=O)[C@@H](NC(=O)[C@H](CCCNC(=N)N)NC(=O)[C@@H](NC(=O)[C@@H](NC(=O)[C@@H](NC(=O)[C@@H](NC(=O)[C@H](Cc1ccccc1)NC(=O)CN)[C@@H](C)O)C(C)C)[C@@H](C)O)C(C)C)C(C)C)C(=O)N[C@@H](C)C(=O)N[C@@H](C)C(=O)N[C@@H](Cc1c[nH]c2ccccc12)C(=O)N[C@@H](C)C(=O)O [Peptide P25.12]
EV-A71/FY0805 [1]
  IC50 (µg/mL) EV-A71 /FY0805: 41.17 ± 7.04 µg/mL (≈ 19.4 µM)

## QMRRKVELFTYMRFD [SP40, peptide derived from VP1 of EV-A71, prevented EV-A71 attachment]
EV-A71
  EC50: 6000 to 9300 nM

## CC[C@H](C)[C@H](NC(=O)[C@H](CCCNC(=N)N)NC(=O)[C@@H](NC(=O)[C@@H](NC(=O)[C@@H](NC(=O)[C@H](CCCCN)NC(=O)[C@@H](NC(=O)[C@@H](N)CCCCN)C(C)C)C(C)C)C(C)C)[C@@H](C)O)C(=O)N[C@@H](Cc1ccc(O)cc1)C(=O)N[C@@H](Cc1c[nH]cn1)C(=O)N[C@@H](CCCCN)C(=O)N[C@@H](C)C(=O)N[C@@H](CCCCN)C(=O)N[C@@H](Cc1c[nH]cn1)C(=O)N[C@H](C(=O)N[C@@H](CCCCN)C(=O)N[C@@H](C)C(=O)N[C@@H](Cc1c[nH]c2ccccc12)C(=O)N[C@@H](CS)C(=O)O)[C@@H](C)O [Peptide P25.A81]
EV-A71/FY0805 [1]
  Antiviral activity of P25 homologous peptides to EV-A71/FY0805: displayed antiviral activity
  IC50 (µg/mL) EV-A71 /FY0805: 23.60 ± 0.49 µg/mL (≈ 10.3 µM)

## ADKNFFKWTINTRSFVQLRR [Peptide P11]
Echo 30/WZ16; [3]
  Inhibitory effect on CPE, peptide screen: exhibited inhibitory effects on CPE
EV-A71/FY0805 [1]
  Inhibitory effect on CPE, peptide screen: exhibited inhibitory effects on CPE
EV-D68/BCH895A; [3]
  Inhibitory effect on CPE, peptide screen: exhibited inhibitory effects on CPE

## CC[C@H](C)[C@H](NC(=O)[C@H](CCCNC(=N)N)NC(=O)[C@@H](NC(=O)[C@@H](NC(=O)[C@@H](NC(=O)[C@H](CCCCN)NC(=O)[C@H](Cc1ccccc1)NC(=O)CN)C(C)C)C(C)C)[C@@H](C)O)C(=O)N[C@@H](Cc1ccc(O)cc1)C(=O)N[C@@H](Cc1c[nH]cn1)C(=O)N[C@@H](CCCCN)C(=O)N[C@@H](C)C(=O)N[C@@H](CCCCN)C(=O)N[C@@H](Cc1c[nH]cn1)C(=O)N[C@H](C(=O)N[C@@H](CCCCN)C(=O)N[C@@H](C)C(=O)N[C@@H](Cc1c[nH]c2ccccc12)C(=O)N[C@@H](CS)C(=O)O)[C@@H](C)O [Peptide P25.A81GF]
Echo 30/WZ16; [4]
  IC50 (µg/mL) Echo 30 /WZ16: >125 µg/mL
EV-A71/FY0805 [1]
  IC50 (µg/mL) EV-A71 /FY0805: 29.28 ± 3.97 µg/mL (≈ 12.9 µM)
EV-D68/BCH895A; [4]
  IC50 (µg/mL) EV-D68 /BCH895A: >125 µg/mL
Poliovirus 3/nOPV3
  IC50 (µg/mL) Poliovirus 3 /nOPV3: >125 µg/mL

## CC[C@H](C)[C@H](NC(=O)[C@H](Cc1c[nH]cn1)NC(=O)[C@H](CCCCN)NC(=O)[C@@H]1CCCN1C(=O)[C@H](CCCCN)NC(=O)[C@H](CCSC)NC(=O)[C@H](Cc1ccc(O)cc1)NC(=O)[C@@H](NC(=O)[C@H](CCCNC(=N)N)NC(=O)[C@@H](NC(=O)[C@@H](NC(=O)[C@@H](NC(=O)[C@@H](N)[C@@H](C)O)C(C)C)[C@@H](C)O)C(C)C)C(C)C)C(=O)N[C@@H](CCCCN)C(=O)N[C@@H](C)C(=O)N[C@@H](Cc1c[nH]c2ccccc12)C(=O)N[C@@H](C)C(=O)O [Peptide P25.5]
EV-A71/FY0805 [2]
  Interference of HS with the antiviral activity of the peptide: No significant interference
EV-A71/FY0805 [1]
  IC50 (µg/mL) EV-A71 /FY0805: >125 µg/mL

## SFAIKWEYVLLLFLL [Peptide 75]
HCV
  EC50: 300 nM

## GFTVTVRVYMK [Peptide P25.1]
EV-A71/FY0805 [1]
  IC50 (µg/mL) EV-A71 /FY0805: 34.06 ± 9.39 µg/mL
